Measured values published in patent US10329268B2, “Processes for preparing medicaments for the treatment of cardiovascular diseases and intermediates for use therein” (Bial-Portela & CA., S.A., priority 2013, dated 2019).
Blank lines part the entries; values can stand above or below the compound they belong to.

Columns and labels:
[1] = Solubility in organic solvents according to Eur. Ph. Chapter 5.11; assay type: physicochemical
Method: The solubility of non-micronized and micronized (R)-5-(2-(benzylamino)ethyl)-1-(6,8-difluorochroman-3-yl)-1H-imidazole-2(3H)-thione in several organic solvents was determined.
Solubility Solubility was evaluated according to Eur. Ph. Chapter 5.11 at room temperature.
The following descriptions are used to describe the degree of solubility: […]

[2] = Aqueous solubility at 37° C. in solutions of pH 1.2 to 9.0; assay type: physicochemical
Method: The aqueous solubility of (R)-5-(2-(benzylamino)ethyl)-1-(6,8-difluorochroman-3-yl)-1H-imidazole-2(3H)-thione was determined in triplicate at 37° C. Aqueous solutions of HCl (pH 1.2, 2.0, 3.0), potassium chloride (pH 1.2, 2.0), acid phthalate (pH 3.0), acetate (pH 4.5, 5.5), phosphate (pH 7.4) and boric acid (pH 9.0) were tested.

dopamine-β-hydroxylase = target: T1, dopamine-β-hydroxylase (Homo sapiens, UniProt P09172); conditions: background statement, WO2004/033447 / WO2008/136695; cited from earlier work
T1 sequence (P09172 1-617): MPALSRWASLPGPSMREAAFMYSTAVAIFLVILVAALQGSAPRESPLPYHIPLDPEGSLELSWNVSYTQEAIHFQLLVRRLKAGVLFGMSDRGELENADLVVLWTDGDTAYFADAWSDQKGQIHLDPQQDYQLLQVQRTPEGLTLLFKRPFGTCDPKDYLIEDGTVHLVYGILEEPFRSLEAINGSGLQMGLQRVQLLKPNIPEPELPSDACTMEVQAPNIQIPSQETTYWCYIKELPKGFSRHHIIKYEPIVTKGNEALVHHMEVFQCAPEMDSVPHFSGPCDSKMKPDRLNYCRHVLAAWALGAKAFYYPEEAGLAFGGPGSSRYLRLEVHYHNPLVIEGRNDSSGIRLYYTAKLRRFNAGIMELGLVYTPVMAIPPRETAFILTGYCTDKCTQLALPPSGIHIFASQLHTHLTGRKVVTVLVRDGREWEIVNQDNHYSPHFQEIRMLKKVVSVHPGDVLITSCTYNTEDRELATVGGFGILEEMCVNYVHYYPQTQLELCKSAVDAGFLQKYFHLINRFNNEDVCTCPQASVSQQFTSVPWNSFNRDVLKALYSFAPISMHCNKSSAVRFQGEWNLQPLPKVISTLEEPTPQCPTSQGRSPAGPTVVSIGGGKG

[3] = background statement; cited from earlier work

Solubility description ([1]; micronized particles, 2-propanol, room temperature): Insoluble
Solubility description ([1]; micronized particles, Cyclohexane, room temperature): Insoluble
Solubility description ([1]; micronized particles, Dimethylformamide, room temperature): Sparingly soluble (from 30 to 100 parts)
Solubility description ([1]; micronized particles, N,N-methylpirrolidone, room temperature): Sparingly soluble (from 30 to 100 parts)
Solubility description ([1]; micronized particles, Tetrahydrofuran, room temperature): Sparingly soluble (from 30 to 100 parts)
Solubility description ([1]; non-micronized particles, 2-propanol, room temperature): Insoluble
Solubility description ([1]; non-micronized particles, Cyclohexane, room temperature): Insoluble
Solubility description ([1]; non-micronized particles, DMSO, room temperature): Sparingly soluble (from 30 to 100 parts)
Solubility description ([1]; non-micronized particles, Dimethylformamide, room temperature): Sparingly soluble (from 30 to 100 parts)
Solubility description ([1]; non-micronized particles, Hexafluoroisopropanol, room temperature): Sparingly soluble (from 30 to 100 parts)
Solubility description ([1]; non-micronized particles, Iso-octane (2,2,4-trimethylpentane), room temperature): Insoluble
Solubility description ([1]; non-micronized particles, Methanol or acetonitrile acidified with 0.1% formic acid or TFA, room temperature): Sparingly soluble (from 30 to 100 parts)
Solubility description ([1]; non-micronized particles, N,N-methylpirrolidone, room temperature): Sparingly soluble (from 30 to 100 parts)
Solubility description ([1]; non-micronized particles, Tetrahydrofuran, room temperature): Sparingly soluble (from 30 to 100 parts)
Change in the solubility profile, before versus after micronization ([1]; organic solvents, room temperature): no overall significant changes
Medium of maximum aqueous solubility [2]: HCl 0.01 (pH 2.0)
Aqueous solubility after micronization relative to non-micronized ([2]; HCl 0.01 (pH 2.0)): lower
Aqueous solubility as a function of pH ([2]; pH 1.2 to 9.0, both non-micronized and micronized): decreases with the increase of pH
Compound: Fc1cc(F)c2c(c1)C[C@@H](n1c(CCNCc3ccccc3)c[nH]c1=S)CO2 [(R)-5-(2-(benzylamino)ethyl)-1-(6,8-difluorochroman-3-yl)-1H-imidazole-2(3H)-thione]
Solubility in polar organic aprotic solvents ([1]; all of the polar organic aprotic solvents tested): either sparingly soluble, slightly soluble or very slightly soluble
Solubility description ([1]; micronized particles, 1,4-Dioxane, room temperature): Very slightly soluble (from 1000 to 10,000 parts)
Solubility description ([1]; micronized particles, Absolute ethanol, room temperature): Very slightly soluble (from 1000 to 10,000 parts)
Solubility description ([1]; micronized particles, Acetone, room temperature): Slightly soluble (from 100 to 1000 parts)
Solubility description ([1]; micronized particles, Acetonitrile, room temperature): Very slightly soluble (from 1000 to 10,000 parts)
Solubility description ([1]; micronized particles, Chloroform, room temperature): Slightly soluble (from 100 to 1000 parts)
Solubility description ([1]; micronized particles, DMSO, room temperature): Slightly soluble (from 100 to 1000 parts)
Solubility description ([1]; micronized particles, Dichloromethane, room temperature): Very slightly soluble (from 1000 to 10,000 parts)
Solubility description ([1]; micronized particles, Ethyl acetate, room temperature): Very slightly soluble (from 1000 to 10,000 parts)
Solubility description ([1]; micronized particles, Iso-octane (2,2,4-trimethylpentane), room temperature): Practically insoluble (greater than or equal to 10,000 parts)
Solubility description ([1]; micronized particles, Methanol or acetonitrile acidified with 0.1% formic acid or TFA, room temperature): Slightly soluble (from 100 to 1000 parts)
Solubility description ([1]; micronized particles, Methanol, room temperature): Very slightly soluble (from 1000 to 10,000 parts)
Solubility description ([1]; micronized particles, Methyl ethyl ketone, room temperature): Slightly soluble (from 100 to 1000 parts)
Solubility in polar organic solvents ([1]; most of the polar organic solvents tested): mostly either sparingly soluble, slightly soluble or very slightly soluble
Solubility description ([1]; non-micronized particles, 1,4-Dioxane, room temperature): Slightly soluble (from 100 to 1000 parts)
Solubility description ([1]; non-micronized particles, Absolute ethanol, room temperature): Practically insoluble (greater than or equal to 10,000 parts)
Solubility description ([1]; non-micronized particles, Acetone, room temperature): Slightly soluble (from 100 to 1000 parts)
Solubility description ([1]; non-micronized particles, Acetonitrile, room temperature): Very slightly soluble (from 1000 to 10,000 parts)
Solubility description ([1]; non-micronized particles, Chloroform, room temperature): Very slightly soluble (from 1000 to 10,000 parts)
Solubility description ([1]; non-micronized particles, Dichloromethane, room temperature): Slightly soluble (from 100 to 1000 parts)
Solubility description ([1]; non-micronized particles, Ethyl acetate, room temperature): Very slightly soluble (from 1000 to 10,000 parts)
Solubility description ([1]; non-micronized particles, Isopropyl acetate, room temperature): Very slightly soluble (from 1000 to 10,000 parts)
Solubility description ([1]; non-micronized particles, Methanol, room temperature): Very slightly soluble (from 1000 to 10,000 parts)
Solubility description ([1]; non-micronized particles, Methyl ethyl ketone, room temperature): Slightly soluble (from 100 to 1000 parts)
Solubility description ([1]; non-micronized particles, Toluene, room temperature): Very slightly soluble (from 1000 to 10,000 parts)
Solubility description ([1]; non-micronized particles, Trifluoroethanol, room temperature): Slightly soluble (from 100 to 1000 parts)

Compound: Cl.NCCc1c[nH]c(=S)n1[C@H]1COc2c(F)cc(F)cc2C1 [Compound 1, (R)-5-(2-Aminoethyl)-1-(6,8-difluorochroman-3-yl)-1,3-dihydroimidazole-2-thione hydrochloride]
Inhibition of dopamine-β-hydroxylase (DβH) (dopamine-β-hydroxylase): potent
Toxicity [3]: non-toxic
